Results from patent US12202790B2, “Sulfonamide derivatives having selective Nox inhibiting activity” (GLUCOX BIOTECH AB, priority 2018, dated 2025).

Experiments:
[1] = target: hNox4 (Homo sapiens (Human), UniProt Q9NPH5); test: Amplex Red assay of intact Nox4 expressing HEK293 cells; assay type: cell-based; conditions: read-out: IC50 Nox4
Method: (§1) HEK293 overexpressing Nox4 (CJ Nox4) cells were purchased from Redoxis, Lund, Sweden. HEK 293 cells expressing Nox5, Nox3 (HEK TRex) and CHO cells expressing Nox1, were a kind gift from Vincent Jaque Center Medical Universitaire, Geneva, Switzerland. Nox2 expressed in isolated neutrophils were isolated from whole blood (human), as previously described (Anvari E, et al., Free Radic Res 2015; 49:1308-1318).
HEK293 cells (CJ Nox4) were cultured in RPMI 1640 with Glutamax supplemented with FBS (10%), penicillin (100 U/ml) and streptomycin […] at 37° C. in air with 5% CO2. Every third passage 200 µg/ml neomycin were supplied in growth medium as selective agent.
(§2) Reactive oxygen produced in whole cells or in membrane preparation of Nox1, Nox3, Nox4, Nox5 and xanthine oxidase and glucose oxidase were determined using Amplex Red as detection probe of formed H2O2. Amplex Red (10-acetyl-3,7-dihydroxyphenoxazine) in combination with HRP and co-factors reacts with H2O2 in a 1:1 stoichiometry to form a highly fluorescent resorufin excitated at 544 nm producing emission at 590 nm.
(§3) Adherent cells (CHO, HEK) were collected by trypsinization, centrifuged, washed with HBSS, counted, and resuspended in HBSS. Cells were seeded in 96-well black flat bottom plates at a density of 50,000-100,000 cells/well. All compounds were dissolved in DMSO and concentrations ranging from 0.003 to 200 μM were tested in Nox cellular assays with a final concentration of DMSO of 1%. Cells were incubated at 37° C. with the compounds for 30 minutes before measurement. Cells expressing Nox1 and Nox2 were activated with the PKC activator PMA (0.1 μM). Nox5 was activated with the Ca2+ ionophore ionomycin (1 μM) and further enforced with PMA. The CJ HEK 293 cells overexpressed Nox4 constitutively. In the HTS screen HEK 293 TRex was used and tetracycline ([…]) was added 18 h before measurement to induce Nox4 expression. Production of hydrogen peroxide by Nox in intact cells was measured using Amplex Red fluorescence as described by Jaquet V, et al., Br J Pharmacol 2011; 164:507-520. Assay reagents including HRP ([…]) and Amplex Red (50 μM) were added to initiate production of hydrogen peroxide. Fluorescence was read in a fluorescence plate reader at 37° C. every minute between 30-60 minutes.

[2] = target: Nox1 (Homo sapiens (Human), UniProt Q9Y5S8); test: Amplex Red assay of Nox1 expressing CHO cells; assay type: cell-based; parameters: key to IC50 Nox1: The sign “—” stands for “inactive”
Method: as §1
CHO cells expressing Nox1 were cultured in DMEM 12 medium (DMEM/F12) supplemented with FBS (10%), penicillin (100 U/ml) and streptomycin (100 μg/ml) at 37° C. in air with 5% CO2.
as §2, §3

[3] = target: Nox2 (Homo sapiens (Human), UniProt P04839); test: Nox2 inhibition in human neutrophils, isoluminol-dependent chemiluminescence; assay type: cell-based; parameters: key to IC50 Nox2: The sign “—” stands for “inactive”; conditions: PMA stimulated human neutrophils
Method: as §1
Compounds of the invention were tested for selectivity against Nox2 in isolated neutrophils from whole blood (human), as previously described (Anvari E, et al., vide supra). Levels of ROS from PMA stimulated primary human neutrophils were measured using isoluminol-dependent chemiluminescence. […] The dye is excited by ROS and the light emitted when the excited molecules return to the ground state, relative to the amount of released ROS, is measured. This reaction is catalyzed and amplified by peroxidases. […] Compounds of the invention and GKT136901 were diluted at 4× working concentration and titrated from 100 μM to 0.006 μM in 1:4 steps as final concentrations. DPI was diluted in isoluminol buffer at 4× working concentration titrated from 10 μM to 0.0006 μM as final concentrations. PMA was diluted in isoluminol buffer at 4× working concentration for a final concentration of 30 ng/ml. […] Luminescence was detected using FluoStar Optima (BMG, Labtech). The isoluminol buffer was prepared immediately prior to addition to test plate. The buffer contained HRP fraction with or without PMA (30 ng/ml). Stock solutions at 6 μg/ml (PMA in HBSS), 3 μg/ml (PMA in DMSO) and 24 mM (DPI) were used and further diluted at the day of analysis to 4× working concentrations in HBSS with or without DMSO.

[4] = DPPH redox assay; parameters: key: The sign “—” stands for “inactive”; conditions: redox activity control
Method: DPPH, a well-known sensitive chemical of monitoring reactions involving radicals described by Xiong Q, et al., Biol Pharm Bull 1996; 19:1580-1585, was used as control to exclude any redox active compound. DPPH was incubated with decreasing concentrations (200-0.003 μM) of compounds of the invention or prior art compound GKT136901 (as a positive control). The plate was kept in the dark for 60 min, after which the absorbance of the solution was measured at 518 nm.

[5] = system: Human islet cells; test: Effects on human islet cell viability; assay type: cell-based; conditions: 48 h, inhibitor 2 μM; for human islet cell death with cytokines: IL-1β (20 ng/ml)+IFN-γ (20 ng/ml); for human islet cell death with high glucose+palmitate: palmitate (1.5 mM)+high glucose (20 mM)
Method: Human islet cells were incubated at control condition, with the cytokines IL-1β (20 ng/ml)+IFN-γ (20 ng/ml), or with palmitate (1.5 mM+2% BSA)+high glucose (20 mM) (PH) for 2 days with or without Nox1 inhibitor ML-171 (2 μM), Nox2 inhibitor Phos-I2 (2 μM) or Example 17 (1 μM). Islets were photographed in an inverted fluorescence microscope and the intensities of red (PI) and blue (Bisbenzimide) signals were quantified using Image J software. Results are indicated as mean±S.E.M for 7 human islet donors.

[6] = target: Nox5 (Homo sapiens (Human), UniProt Q96PH1); test: Amplex Red assay of Nox5 expressing HEK cells; assay type: cell-based; parameters: key: The sign “—” stands for “inactive”
Description: as §1
HEK293T cells expressing tetracycline-inducible human (Nox3 or Nox4) and HEK293 cells stably expressing human Nox5 were generated as described previously (Serrander et al., 2007a,b). HEK cells were cultured in Dulbecco's modified Eagle medium (DMEM) with 4.5 g/l glucose, supplemented with FBS (10%), penicillin (100 U/ml) and streptomycin […] at 37° C. in air with 5% CO2.
as §2, §3

[7] = target: xanthine oxidase (Bos taurus (Bovine), UniProt P80457); test: Amplex Red xanthine oxidase (XO) assay; assay type: biochemical; parameters: key: The sign “—” stands for “inactive”
Method: as §2
The assay was designed for Amplex Red analysis of production of hydrogen peroxide. Test compounds were incubated with 5 mU/ml bovine derived xanthine oxidase for 15 min at room temperature followed by the addition of substrate and detection mix (final concentrations of 0.2 U/ml HRP, 5 μM hypoxanthine, and 50 μM Amplex Red). As described by Hirano K et al., Antioxid Redox Signal 2015 10; 23:358-374, production of hydrogen peroxide was followed by fluorescence detection during 30 min at 37° C. in a plate reader that use excitation at 544 nm producing emission at 590 nm.

Nox5, sequence (Q96PH1 whole entry): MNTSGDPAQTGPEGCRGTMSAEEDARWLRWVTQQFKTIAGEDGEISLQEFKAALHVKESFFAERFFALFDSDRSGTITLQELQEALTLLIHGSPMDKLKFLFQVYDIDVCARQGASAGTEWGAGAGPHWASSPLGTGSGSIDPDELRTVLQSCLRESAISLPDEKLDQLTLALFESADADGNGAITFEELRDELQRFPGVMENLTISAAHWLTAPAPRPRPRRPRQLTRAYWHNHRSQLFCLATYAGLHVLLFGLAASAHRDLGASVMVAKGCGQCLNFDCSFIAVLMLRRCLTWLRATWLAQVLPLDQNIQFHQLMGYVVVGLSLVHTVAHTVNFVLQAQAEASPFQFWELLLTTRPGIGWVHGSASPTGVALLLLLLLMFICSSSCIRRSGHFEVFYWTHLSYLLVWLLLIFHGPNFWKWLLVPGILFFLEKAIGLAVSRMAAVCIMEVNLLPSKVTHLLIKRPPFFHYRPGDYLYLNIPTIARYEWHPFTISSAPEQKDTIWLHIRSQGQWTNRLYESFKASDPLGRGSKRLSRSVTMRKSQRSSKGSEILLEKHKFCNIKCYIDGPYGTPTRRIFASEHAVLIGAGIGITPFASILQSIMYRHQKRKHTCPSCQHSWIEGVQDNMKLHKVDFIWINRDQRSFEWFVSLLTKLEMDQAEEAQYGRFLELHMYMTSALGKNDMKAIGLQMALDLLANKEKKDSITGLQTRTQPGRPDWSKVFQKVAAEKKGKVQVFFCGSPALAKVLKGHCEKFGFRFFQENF
Nox2, sequence (P04839 2-570): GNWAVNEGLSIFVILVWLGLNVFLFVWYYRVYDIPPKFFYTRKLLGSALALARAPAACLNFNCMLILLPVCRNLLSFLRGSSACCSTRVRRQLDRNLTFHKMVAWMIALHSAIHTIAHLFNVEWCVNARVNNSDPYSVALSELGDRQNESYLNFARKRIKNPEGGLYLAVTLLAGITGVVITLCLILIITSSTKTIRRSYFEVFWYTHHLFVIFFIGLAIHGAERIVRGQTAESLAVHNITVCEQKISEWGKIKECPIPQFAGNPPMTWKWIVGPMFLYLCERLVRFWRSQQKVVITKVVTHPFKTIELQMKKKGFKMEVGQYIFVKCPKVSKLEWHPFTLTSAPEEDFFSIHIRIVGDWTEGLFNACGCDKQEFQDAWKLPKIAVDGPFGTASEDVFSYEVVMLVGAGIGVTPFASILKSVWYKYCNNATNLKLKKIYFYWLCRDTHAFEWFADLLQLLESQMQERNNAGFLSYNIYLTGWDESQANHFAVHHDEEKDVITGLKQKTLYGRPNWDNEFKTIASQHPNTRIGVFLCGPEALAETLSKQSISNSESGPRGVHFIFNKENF
Nox2, sequence (P13498 2-195 partner): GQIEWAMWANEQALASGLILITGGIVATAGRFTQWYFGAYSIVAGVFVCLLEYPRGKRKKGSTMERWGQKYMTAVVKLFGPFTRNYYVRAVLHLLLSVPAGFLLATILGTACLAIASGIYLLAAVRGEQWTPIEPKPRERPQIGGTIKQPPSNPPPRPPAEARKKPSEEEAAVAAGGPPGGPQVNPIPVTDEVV
Nox1, sequence (Q9Y5S8 whole entry): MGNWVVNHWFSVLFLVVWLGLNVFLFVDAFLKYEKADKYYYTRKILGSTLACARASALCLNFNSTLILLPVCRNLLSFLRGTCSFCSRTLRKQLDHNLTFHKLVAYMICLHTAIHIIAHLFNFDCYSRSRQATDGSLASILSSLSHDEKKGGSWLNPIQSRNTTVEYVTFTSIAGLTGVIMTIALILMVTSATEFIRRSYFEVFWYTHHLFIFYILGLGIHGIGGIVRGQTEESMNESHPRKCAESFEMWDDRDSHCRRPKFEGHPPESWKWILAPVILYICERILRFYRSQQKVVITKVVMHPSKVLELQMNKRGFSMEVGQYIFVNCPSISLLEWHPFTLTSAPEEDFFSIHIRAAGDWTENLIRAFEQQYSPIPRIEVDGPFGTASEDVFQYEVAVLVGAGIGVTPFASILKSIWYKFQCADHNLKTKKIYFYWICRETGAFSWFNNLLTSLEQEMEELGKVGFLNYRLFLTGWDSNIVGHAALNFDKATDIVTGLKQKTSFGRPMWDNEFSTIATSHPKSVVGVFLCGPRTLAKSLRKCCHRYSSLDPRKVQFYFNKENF
Nox1, sequence (P13498 2-195 partner): as the sequence (P13498 2-195 partner) above
xanthine oxidase, sequence (P80457 whole entry): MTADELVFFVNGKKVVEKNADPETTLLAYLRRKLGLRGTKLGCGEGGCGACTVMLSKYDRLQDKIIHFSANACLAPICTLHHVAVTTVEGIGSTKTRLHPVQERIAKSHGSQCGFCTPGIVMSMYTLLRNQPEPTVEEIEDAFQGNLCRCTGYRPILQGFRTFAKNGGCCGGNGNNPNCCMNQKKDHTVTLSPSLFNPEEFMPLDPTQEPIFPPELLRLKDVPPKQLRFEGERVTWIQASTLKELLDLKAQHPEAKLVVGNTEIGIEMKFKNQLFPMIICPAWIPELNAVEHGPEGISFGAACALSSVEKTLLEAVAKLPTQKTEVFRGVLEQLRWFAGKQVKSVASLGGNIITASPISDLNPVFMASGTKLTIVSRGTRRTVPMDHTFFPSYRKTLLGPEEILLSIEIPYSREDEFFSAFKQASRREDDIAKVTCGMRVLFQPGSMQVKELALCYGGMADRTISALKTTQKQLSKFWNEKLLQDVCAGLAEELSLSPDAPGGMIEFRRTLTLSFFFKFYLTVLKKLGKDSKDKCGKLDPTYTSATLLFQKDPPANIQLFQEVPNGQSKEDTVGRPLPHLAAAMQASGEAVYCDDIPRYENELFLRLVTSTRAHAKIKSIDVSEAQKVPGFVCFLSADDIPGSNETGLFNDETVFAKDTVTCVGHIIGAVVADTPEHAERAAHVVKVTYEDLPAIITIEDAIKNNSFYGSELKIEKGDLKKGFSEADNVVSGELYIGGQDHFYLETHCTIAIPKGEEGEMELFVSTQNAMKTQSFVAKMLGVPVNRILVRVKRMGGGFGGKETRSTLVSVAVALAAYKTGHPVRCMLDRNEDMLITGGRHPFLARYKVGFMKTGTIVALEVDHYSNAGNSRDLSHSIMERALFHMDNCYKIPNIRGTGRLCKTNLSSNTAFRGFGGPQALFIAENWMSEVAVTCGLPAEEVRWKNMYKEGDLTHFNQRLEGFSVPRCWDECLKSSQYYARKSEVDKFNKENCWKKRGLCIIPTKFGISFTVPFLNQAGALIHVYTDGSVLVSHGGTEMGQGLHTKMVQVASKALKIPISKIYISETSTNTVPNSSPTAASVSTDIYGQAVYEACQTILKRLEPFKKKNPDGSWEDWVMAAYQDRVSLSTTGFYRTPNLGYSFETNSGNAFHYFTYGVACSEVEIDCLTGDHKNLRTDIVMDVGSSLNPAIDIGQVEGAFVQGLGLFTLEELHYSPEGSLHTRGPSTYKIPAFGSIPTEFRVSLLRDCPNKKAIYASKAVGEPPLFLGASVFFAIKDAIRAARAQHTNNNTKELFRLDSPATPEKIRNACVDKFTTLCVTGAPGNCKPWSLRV
hNox4, sequence (Q9NPH5 whole entry): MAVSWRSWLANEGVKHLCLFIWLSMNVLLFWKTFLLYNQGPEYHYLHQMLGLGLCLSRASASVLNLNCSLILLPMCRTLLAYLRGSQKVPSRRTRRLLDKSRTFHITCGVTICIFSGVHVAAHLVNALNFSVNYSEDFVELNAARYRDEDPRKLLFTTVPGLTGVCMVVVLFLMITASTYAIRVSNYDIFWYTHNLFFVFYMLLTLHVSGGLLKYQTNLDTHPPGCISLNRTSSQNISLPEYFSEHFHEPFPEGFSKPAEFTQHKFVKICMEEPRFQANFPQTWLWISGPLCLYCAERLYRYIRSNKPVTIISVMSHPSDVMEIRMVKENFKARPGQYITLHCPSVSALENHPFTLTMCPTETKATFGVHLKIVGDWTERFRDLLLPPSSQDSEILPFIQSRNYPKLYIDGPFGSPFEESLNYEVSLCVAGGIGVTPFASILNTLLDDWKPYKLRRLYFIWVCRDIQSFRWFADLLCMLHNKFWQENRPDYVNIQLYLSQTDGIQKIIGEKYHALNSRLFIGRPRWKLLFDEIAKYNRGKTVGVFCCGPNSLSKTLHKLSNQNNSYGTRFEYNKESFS
hNox4, sequence (P13498 2-195 partner): as the sequence (P13498 2-195 partner) above

Compound | IC50 [1] [nM] | IC50 [2] [nM] | IC50 [3] [nM] | IC50 DPPH [4] | human islet cell death with cytokines [5] | human islet cell death with high glucose+palmitate [5] | IC50 Nox1 [2] | IC50 Nox5 [6] | IC50 XO [7] | IC50 Nox2 [3]
Cc1c2c(=O)n(-c3ccccc3Cl)[nH]c2cc(=O)n1Cc1ccccn1 [GKT136901, 2-(2-Chlorophenyl)-4-methyl-5-(pyridin-2-ylmethyl)-1H-pyrazolo[4,3-c]pyridine-3,6-dione, reference compound] | 1600 | 500 | 9000 | active |  |  |  |  |  | 
CC(=O)c1ccc2c(c1)Nc1ccccc1S2 [ML171] |  |  |  |  | failed to reduce human islet cell death | failed to reduce human islet cell death |  |  |  | 
O=S(=O)(NCCc1ccccc1F)c1c(Cl)cc(C2CC2)cc1Cl [Example 25, 2,6-dichloro-4-cyclopropyl-N-[2-(2-fluorophenyl)ethyl]benzene-1-sulfonamide] | 1100 |  |  | — |  |  | — | — | — | 
Cc1ccccc1C(F)CNS(=O)(=O)c1c(Cl)cc(Br)cc1Cl (single isomer, unassigned) [Example 35 (isomer 1), 4-bromo-2,6-dichloro-N-[2-fluoro-2-(2-methylphenyl)ethyl]benzene-1-sulfonamide] | 1700 |  |  | — |  |  | — | — | — | —
Cc1cc(C)c(S(=O)(=O)NCCc2ccccc2C)c(C)c1 [Example 14, 2,4,6-trimethyl-N-[2-(2-methylphenyl)ethyl]benzene-1-sulfonamide] | 90 |  |  | — |  |  | — | — | — | —
Cc1cc(C)c(S(=O)(=O)NCCc2ccccc2Cl)c(C)c1 [Example 6, N-[2-(2-chlorophenyl)ethyl]-2,4,6-trimethylbenzene-1-sulfonamide] | 270 |  |  | — |  |  | — | — | — | —
O=S(=O)(NCCc1ccccc1Cl)c1c(Cl)cc(Br)cc1Cl [Example 20, 4-bromo-2,6-dichloro-N-[2-(2-chlorophenyl)ethyl]benzene-1-sulfonamide] | 900 |  |  | — |  |  | — | — | — | 
O=S(=O)(NCCc1ccccc1Cl)c1c(Cl)cc(C(F)(F)F)cc1Cl [Example 27, 2,6-dichloro-N-[2-(2-chlorophenyl)ethyl]-4-(trifluoromethyl)benzene-1-sulfonamide] | 1600 |  |  | — |  |  | — | — | — | 
Cc1ccccc1C(F)CNS(=O)(=O)c1c(Cl)cc(Br)cc1Cl (single isomer, unassigned) [Example 35 (isomer 2), 4-bromo-2,6-dichloro-N-[2-fluoro-2-(2-methylphenyl)ethyl]benzene-1-sulfonamide] | 4900 |  |  | — |  |  | — | — | — | —
Cc1cc(C)c(S(=O)(=O)NCCc2ccccc2F)c(C)c1 [Example 2, N-[2-(2-fluorophenyl)ethyl]-2,4,6-trimethylbenzene-1-sulfonamide] | 2200 |  |  | — |  |  | — | — | — | —
Cc1cc(C)c(S(=O)(=O)NCCc2ccccc2Br)c(C)c1 [Example 7, N-[2-(2-bromophenyl)ethyl]-2,4,6-trimethylbenzene-1-sulfonamide] | 270 |  |  |  |  |  | — | — | — | —
Cc1c(C)c(S(=O)(=O)NCCc2ccccc2Cl)c(C)c2c1OC(C)(C)C2 [Example 9, N-[2-(2-chlorophenyl)ethyl]-2,2,4,6,7-pentamethyl-2,3-dihydro-1-benzofuran-5-sulfonamide] | 1600 |  |  | — |  |  | — | — | — | —
O=[N+]([O-])c1cccc(C2Nc3ccc([N+](=O)[O-])cc3C3C=CCC32)c1 (stereo not shown) [Phox-I2] |  |  |  |  | failed to protect human islets against cytokines | partially protected against high glucose+palmitate |  |  |  | 
